Consider 5 molecules from BindingDB's records for doi:10.7270/Q2V1236D (Burnham Center For Chemical Genomics, 2009).

Chain of his6-Siah1 (aa 81-282) (Q8IUQ4 whole entry, looked up, the tested form may be a part): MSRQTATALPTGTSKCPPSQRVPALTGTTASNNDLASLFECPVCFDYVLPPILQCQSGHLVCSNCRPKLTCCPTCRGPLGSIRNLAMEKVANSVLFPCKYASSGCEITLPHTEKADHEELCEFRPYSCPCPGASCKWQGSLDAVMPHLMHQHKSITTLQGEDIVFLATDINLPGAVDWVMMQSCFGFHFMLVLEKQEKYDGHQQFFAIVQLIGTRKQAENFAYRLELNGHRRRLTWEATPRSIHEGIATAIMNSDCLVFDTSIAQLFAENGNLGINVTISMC

The assay addresses his6-Siah1 (aa 81-282) (Homo sapiens, UniProt Q8IUQ4). Put plainly: Siah-1 binding antagonists, dose response, biochemical, TR-FRET (AID 2141).
The molecule `C[N+]1(CCNC(=O)CN=O)CCCCC1` had an IC50 of 130 µM.
In the case of `CCOC(=O)C1(C)CC(=Nc2ccc(O)cc2)C(=O)N1c1ccc(O)cc1` (stereo not given) it was 50.7 µM; in that of `O=C(Nc1ccc(Br)cc1)c1ccc(-n2c(O)c3c(c2O)CC=CC3)cc1` [4-[1,3-bis(oxidanylidene)-3a,4,7,7a-tetrahydroisoindol-2-yl]-N-(4-bromophenyl)benzamide], 4.27 µM; in that of `CC1(C)OC(C)(C)C(=CNc2ccc(O)cc2)C1=O` [4-[(4-hydroxyanilino)methylene]-2,2,5,5-tetramethyldihydro-3(2H)-furanone], 2.93 µM.
For the molecule `CC(C)(C)c1cc(-c2cs/c(=N\c3ccccc3)n2Cc2ccc(C(=O)O)cc2)cc(C(C)(C)C)c1O` [4-[[4-(3,5-ditert-butyl-4-oxidanyl-phenyl)-2-phenylazanyl-1,3-thiazol-3-ium-3-yl]methyl]benzoic acid;bromide], the IC50 came to 6.69 µM.

The term IC50 denotes the concentration that inhibits the measured activity by half. Read a low IC50 as inhibition by little substance.
